This is an account of results in patent US10028961B2, “Therapeutically active compounds and their methods of use” (AGIOS PHARMACEUTICALS, INC., priority 2013, dated 2018).

Experiment [1] has as its target IDH1 wt/IDH1 R132H heterodimer (Homo sapiens (Human), UniProt O75874, R132H). As to the kind of experiment: In vitro assay for IDH1m R132H inhibitors, IDH1 wt/IDH1 R132H heterodimer, NADPH depletion (diaphorase/resazurin). In kind it is biochemical. Summed up:
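Purified IDH1wt-his/IDH1R132H-flag heterodimer (sf9 co-expression) pre-incubated 1 hr at room temperature with compound and NADPH before α-KG addition. Remaining NADPH read by diaphorase/resazurin conversion to fluorescent resorufin, 5 min at 25° C. Compounds diluted 1:50 from DMSO; IC50 determined.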

The target in experiment [2] is IDH1 wt/IDH1 R132C heterodimer (Homo sapiens (Human), UniProt O75874, R132C). The experiment in a line: In vitro assay for IDH1m R132C inhibitors, IDH1 wt/IDH1 R132C heterodimer, NADPH depletion (diaphorase/resazurin). The class given is biochemical. Conditions: NADPH/NADP. An outline of the steps:
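Remaining NADPH was measured by diaphorase/resazurin conversion (5 min, 25 °C) as resorufin fluorescence, Ex 544/Em 590. DMSO was diluted 1:50 into the reaction, and IC50s were derived.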
In general terms: Resazurin is reduced to fluorescent resorufin, in cell work by metabolically active cells.

Experiment [3] relates to U87MG pLVX-IDH2 R140Q-neo cells. As to the kind of experiment: U87MG pLVX-IDH2 R140Q-neo cell based assay, 2-HG by LC-MS. Conditions: Homo sapiens, U-87 MG.
Experiment [4] concerns Neurosphere cells (TS603). The experiment in a line: Cellular assay for IDH1m R132H inhibitors, 2-HG by LC-MS in neurosphere cells (TS603). In kind it is cell-based. Conditions: 2-HG in media at 48 hours. An outline of the steps: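 TS603 neurosphere cells in NeuroCult medium were dosed with compound (0.25% DMSO final) at 37 C, 5% CO2. After 48 hours, medium 2-HG was measured by LC-MS. At 72 hours, viability was read by CellTiter-Glo luminescence.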

Setting [5] is: IDH1 wt/R132H heterodimer, NADPH/NADP, not saturated, read-out: IDH1 wt/R132H NADPH/NADP IC50 not saturated.
[6] abbreviates: IDH1 wt/IDH1 R132H heterodimer, 300 μM NADP (saturated), read-out: IDH1 wt/R132H NADPH/NADP IC50 saturated.

Like-named read-outs stand apart in the source and are kept apart here.

Chain of IDH1 wt/IDH1 R132C heterodimer (O75874 whole entry R132C): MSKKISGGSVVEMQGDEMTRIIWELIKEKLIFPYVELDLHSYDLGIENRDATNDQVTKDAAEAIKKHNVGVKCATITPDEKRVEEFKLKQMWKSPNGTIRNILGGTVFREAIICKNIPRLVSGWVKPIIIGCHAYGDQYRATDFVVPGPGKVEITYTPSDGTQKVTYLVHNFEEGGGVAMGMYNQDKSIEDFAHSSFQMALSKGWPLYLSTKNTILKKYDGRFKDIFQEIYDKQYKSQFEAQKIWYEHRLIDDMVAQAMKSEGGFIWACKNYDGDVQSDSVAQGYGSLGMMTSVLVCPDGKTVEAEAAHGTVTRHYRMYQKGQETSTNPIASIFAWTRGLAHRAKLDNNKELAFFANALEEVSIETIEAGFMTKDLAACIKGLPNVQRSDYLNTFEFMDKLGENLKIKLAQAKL
Chain of IDH1 wt/IDH1 R132C heterodimer (O75874 whole entry, stated change not applied): as the sequence (O75874 whole entry R132C) above, with C132R counted along it
Chain of IDH1 wt/IDH1 R132H heterodimer (O75874 whole entry R132H): as the sequence (O75874 whole entry R132C) above, with C132H counted along it
Chain of IDH1 wt/IDH1 R132H heterodimer (O75874 whole entry, stated change not applied): as the sequence (O75874 whole entry R132C) above, with C132R counted along it

On to `CC(F)(F)c1cccc(-c2nc(NC3CCC(F)(F)C3)nc(NC3CCC(F)(F)C3)n2)n1` (centres unmarked) [Compound 105], for which the IC50 in experiment [1] (setting [5]), in experiment [2], in experiment [3] and in experiment [4] was < 0.05 µM each time.
As for `Fc1cc(F)cc(Nc2nc(NC3CC(F)(F)C3)nc(-n3ccc(C(F)(F)F)n3)n2)c1` [Compound 106], the IC50 in experiment [1] (setting [5]), in experiment [3] and in experiment [4] was < 0.05 µM throughout.
Regarding `CCC(Nc1nc(NC(CC)C2CC2)nc(-c2cccc(Cl)n2)n1)C1CC1` (centres unmarked) [Compound 110], the IC50 in experiment [1] (setting [5]), in experiment [2], in experiment [3] and in experiment [4] was < 0.05 µM each time.
For `FC1(F)CCC(Nc2nc(NC3CCC(F)(F)C3)nc(-c3cccc(Cl)n3)n2)C1` (centres unmarked) [Compound 113], the IC50 in experiment [1] (setting [5]), in experiment [2], in experiment [3] and in experiment [4] was < 0.05 µM throughout.
With `CC(C)(C)Nc1nc(Nc2cccc(C#N)c2)nc(-c2cccc(C(F)(F)F)n2)n1` [Compound 117], the IC50 in experiment [1] (setting [5]), in experiment [2] and in experiment [3] was < 0.05 µM in each case.
In the case of `FC1(F)CCC(Nc2nc(NC3CCC(F)(F)CC3)nc(-c3cncc(C(F)(F)F)n3)n2)CC1` [Compound 160], the IC50 in experiment [1] (setting [5]), in experiment [3] and in experiment [4] was < 0.05 µM each time.
Turning to `FC1(F)CC(Nc2nc(NC3CC(F)(F)C3)nc(-c3cncc(C(F)(F)F)n3)n2)C1` [Compound 161], the IC50 in experiment [1] (setting [5]), in experiment [3] and in experiment [4] was < 0.05 µM in each case.
For `N#CC1(c2cc(Nc3nc(NC4CC(F)(F)C4)nc(-c4cccc(C(F)(F)F)n4)n3)ccn2)CC1` [Compound 168], the IC50 in experiment [1] (setting [5]), in experiment [3] and in experiment [4] was < 0.05 µM throughout.
For `FC1(F)CCC(Nc2nc(NC3CCOCC3)nc(-c3cccc(C(F)(F)F)n3)n2)CC1` [Compound 255], the IC50 in experiment [1] (setting [5]) and in experiment [2] was 0.1 to 1 µM each time.
On to `O=C(c1ccccc1)N1CCC(Nc2nc(NC3CCC(F)(F)C3)nc(-c3cccc(C(F)(F)F)n3)n2)C1` (centres unmarked) [Compound 263], for which the IC50 in experiment [1] (setting [5]) and in experiment [2] was 0.1 to 1 µM throughout.
With `CS(=O)(=O)N1CCC(Nc2nc(NC3CCC(F)(F)CC3)nc(-c3cccc(C(F)(F)F)n3)n2)CC1` [Compound 266], the IC50 in experiment [1] (setting [5]) is 0.1 to 1 µM; in experiment [2], 0.1 to 1 µM; in experiment [4] it was < 0.05 µM.
Turning to `Fc1ccc([C@H]2C[C@@H](Nc3nc(N[C@H]4C[C@@H](c5ccc(F)cc5)C4)nc(-c4cccc(C(F)(F)F)n4)n3)C2)cc1` [Compound 272], the IC50 in experiment [1] (setting [5]), in experiment [2] and in experiment [3] was 0.1 to 1 µM each time.
For `CC(=O)N1CCC(Nc2nc(NC3CCC(F)(F)CC3)nc(-c3cccc(C(F)(F)F)n3)n2)CC1` [Compound 273], the IC50 in experiment [1] (setting [5]) and in experiment [2] was 0.1 to 1 µM throughout.
As for `FC1(F)CCC(Nc2nc(NC3CCN(Cc4ccccc4)C3)nc(-c3cccc(C(F)(F)F)n3)n2)C1` (centres unmarked) [Compound 280], the IC50 in experiment [1] (setting [5]) is 0.1 to 1 µM; in experiment [2], ≥ 1 µM.
Turning to `FC1(F)CCC(Nc2nc(Nc3ccnc(C(F)(F)F)c3)nc(-c3cncc(C(F)(F)F)n3)n2)CC1` [Compound 389], the IC50 in experiment [1] (setting [6]), in experiment [3] and in experiment [4] was < 0.05 µM throughout.
In the case of `FC1(F)CC[C@H](Nc2nc(Nc3ccnc(C(F)(F)F)c3)nc(-c3cncc(C(F)(F)F)n3)n2)C1` [Compound 391], the IC50 in experiment [1] (setting [6]), in experiment [3] and in experiment [4] was < 0.05 µM throughout.
For `N#CC1(c2cc(Nc3nc(NC4CC(F)(F)C4)nc(-c4cncc(C(F)(F)F)n4)n3)ccn2)CC1` [Compound 401], the IC50 in experiment [1] (setting [6]), in experiment [3] and in experiment [4] was < 0.05 µM each time.
